Results from ChEMBL document CHEMBL5303573, “Mapping human microbiome drug metabolism by gut bacteria and their genes” (Nature, 2019).

Assays:
[1] = The drug is tested on Providencia alcalifaciens strain: DSM30120 for biotransformation. The drug concentrations were measured before and after a 12-h incubation by liquid-chromatography-coupled mass spectrometry (LC–MS); settings: 2 µM
[2] = The drug is tested on Alistipes indistinctus strain: DSM22520 for biotransformation. The drug concentrations were measured before and after a 12-h incubation by liquid-chromatography-coupled mass spectrometry (LC–MS); settings: 2 µM
[3] = The drug is tested on Eubacterium biforme strain: DSM3989 for biotransformation. The drug concentrations were measured before and after a 12-h incubation by liquid-chromatography-coupled mass spectrometry (LC–MS); settings: holdemanella biformis, 2 µM
[4] = The drug is tested on Salmonella typhimurium strain: LT2 for biotransformation. The drug concentrations were measured before and after a 12-h incubation by liquid-chromatography-coupled mass spectrometry (LC–MS); settings: salmonella enterica subsp. enterica, 2 µM
[5] = victivallis vadensis, 12 h, 2 µM
[6] = anaerostipes sp., 12 h, 2 µM
[7] = The drug is tested on Odoribacter splanchnicus strain: fecal isolate for biotransformation. The drug concentrations were measured before and after a 12-h incubation by liquid-chromatography-coupled mass spectrometry (LC–MS); settings: 2 µM
[8] = The drug is tested on Bacteroides fragilis strain: T(B)9 for biotransformation. The drug concentrations were measured before and after a 12-h incubation by liquid-chromatography-coupled mass spectrometry (LC–MS); settings: 2 µM
[9] = The drug is tested on Proteus penneri strain: ATCC35198 for biotransformation. The drug concentrations were measured before and after a 12-h incubation by liquid-chromatography-coupled mass spectrometry (LC–MS); settings: 2 µM
[10] = clostridioides difficile, 12 h, 2 µM
Description: The drug is tested on Clostridium difficile strain: 120 for biotransformation. The drug concentrations were measured before and after a 12-h incubation by liquid-chromatography-coupled mass spectrometry (LC–MS)

[11] = The drug is tested on Eubacterium rectale strain: ATCC33656 for biotransformation. The drug concentrations were measured before and after a 12-h incubation by liquid-chromatography-coupled mass spectrometry (LC–MS); settings: agathobacter rectalis, 2 µM
[12] = The drug is tested on Clostridium hathewayi strain: DSM13479 for biotransformation. The drug concentrations were measured before and after a 12-h incubation by liquid-chromatography-coupled mass spectrometry (LC–MS); settings: hungatella hathewayi, 2 µM
[13] = The drug is tested on Clostridium spiroforme strain: DSM1552 for biotransformation. The drug concentrations were measured before and after a 12-h incubation by liquid-chromatography-coupled mass spectrometry (LC–MS); settings: thomasclavelia spiroformis, 2 µM
[14] = The drug is tested on Eggerthella lenta strain: ATCC25559 for biotransformation. The drug concentrations were measured before and after a 12-h incubation by liquid-chromatography-coupled mass spectrometry (LC–MS); settings: 2 µM
[15] = The drug is tested on Clostridium ramosum strain: DSM1402 for biotransformation. The drug concentrations were measured before and after a 12-h incubation by liquid-chromatography-coupled mass spectrometry (LC–MS); settings: thomasclavelia ramosa, 2 µM

Q: With `COc1ccc(CCN(C)CCCC(C#N)(c2ccc(OC)c(OC)c2)C(C)C)cc1OC` (centres undefined) as the compound, how does the “Bacterial Biotransformation” value [1] read?
A: Compound NOT metabolized

Q: And the “Bacterial Biotransformation” value [2]?
A: Compound NOT metabolized

Q: And the “Bacterial Biotransformation” value [3]?
A: Compound NOT metabolized

Q: What about the “Bacterial Biotransformation” value [4] of the same compound?
A: Compound metabolized

Q: What about the “Bacterial Biotransformation” value [5] of the same compound?
A: Compound NOT metabolized

Q: What about the “Bacterial Biotransformation” value [6] of the same compound?
A: Compound NOT metabolized

Q: What about the “Bacterial Biotransformation” value [7] of the same compound?
A: Compound metabolized

Q: What about the “Bacterial Biotransformation” value [8] of the same compound?
A: Compound NOT metabolized

Q: What about the “Bacterial Biotransformation” value [9] of the same compound?
A: Compound NOT metabolized

Q: Which results are given for `Cc1nc(-c2ccc(OCC(C)C)c(C#N)c2)sc1C(=O)O` [FEBUXOSTAT]?
A: Bacterial Biotransformation [10]: Compound NOT metabolized; Bacterial Biotransformation [1]: Compound NOT metabolized; Bacterial Biotransformation [2]: Compound NOT metabolized; Bacterial Biotransformation [3]: Compound NOT metabolized; Bacterial Biotransformation [4]: Compound NOT metabolized; Bacterial Biotransformation [11]: Compound NOT metabolized; Bacterial Biotransformation [6]: Compound NOT metabolized; Bacterial Biotransformation [12]: Compound NOT metabolized; Bacterial Biotransformation [7]: Compound metabolized; Bacterial Biotransformation [13]: Compound NOT metabolized; Bacterial Biotransformation [8]: Compound metabolized

Q: Which “Bacterial Biotransformation” value [2] does the source give for `COC1=CC(=O)C[C@@H](C)[C@]12Oc1c(Cl)c(OC)cc(OC)c1C2=O` [GRISEOFULVIN] here?
A: Compound NOT metabolized

Q: What about the “Bacterial Biotransformation” value [4] of the same compound?
A: Compound NOT metabolized

Q: What about the “Bacterial Biotransformation” value [11] of the same compound?
A: Compound NOT metabolized

Q: What about the “Bacterial Biotransformation” value [5] of the same compound?
A: Compound NOT metabolized

Q: What about the “Bacterial Biotransformation” value [6] of the same compound?
A: Compound NOT metabolized

Q: What about the “Bacterial Biotransformation” value [12] of the same compound?
A: Compound NOT metabolized

Q: What about the “Bacterial Biotransformation” value [14] of the same compound?
A: Compound NOT metabolized

Q: And the “Bacterial Biotransformation” value [8]?
A: Compound metabolized

Q: What about the “Bacterial Biotransformation” value [9] of the same compound?
A: Compound NOT metabolized

Q: Which results are given for `CCCCC1=NC2(CCCC2)C(=O)N1Cc1ccc(-c2ccccc2-c2nnn[nH]2)cc1` [IRBESARTAN]?
A: Bacterial Biotransformation [10]: Compound NOT metabolized; Bacterial Biotransformation [2]: Compound metabolized; Bacterial Biotransformation [11]: Compound NOT metabolized; Bacterial Biotransformation [5]: Compound NOT metabolized; Bacterial Biotransformation [6]: Compound metabolized; Bacterial Biotransformation [12]: Compound metabolized; Bacterial Biotransformation [7]: Compound metabolized; Bacterial Biotransformation [13]: Compound metabolized

Q: What does the source list for `OCCOCCN1CCN(C2=Nc3ccccc3Sc3ccccc32)CC1` [QUETIAPINE]?
A: Bacterial Biotransformation [1]: Compound NOT metabolized; Bacterial Biotransformation [2]: Compound NOT metabolized; Bacterial Biotransformation [3]: Compound NOT metabolized; Bacterial Biotransformation [4]: Compound NOT metabolized; Bacterial Biotransformation [11]: Compound NOT metabolized; Bacterial Biotransformation [5]: Compound NOT metabolized; Bacterial Biotransformation [6]: Compound NOT metabolized; Bacterial Biotransformation [12]: Compound NOT metabolized; Bacterial Biotransformation [7]: Compound NOT metabolized; Bacterial Biotransformation [9]: Compound NOT metabolized

Q: For `Nc1nc2ccc(OC(F)(F)F)cc2s1` [RILUZOLE], which “Bacterial Biotransformation” value [10] is on record?
A: Compound NOT metabolized

Q: And the “Bacterial Biotransformation” value [1]?
A: Compound NOT metabolized

Q: What about the “Bacterial Biotransformation” value [2] of the same compound?
A: Compound NOT metabolized

Q: And the “Bacterial Biotransformation” value [3]?
A: Compound NOT metabolized

Q: And the “Bacterial Biotransformation” value [4]?
A: Compound NOT metabolized

Q: And the “Bacterial Biotransformation” value [11]?
A: Compound NOT metabolized

Q: What about the “Bacterial Biotransformation” value [15] of the same compound?
A: Compound NOT metabolized

Q: What about the “Bacterial Biotransformation” value [5] of the same compound?
A: Compound NOT metabolized

Q: And the “Bacterial Biotransformation” value [6]?
A: Compound NOT metabolized

Q: What about the “Bacterial Biotransformation” value [12] of the same compound?
A: Compound NOT metabolized

Q: What about the “Bacterial Biotransformation” value [7] of the same compound?
A: Compound NOT metabolized

Q: What about the “Bacterial Biotransformation” value [14] of the same compound?
A: Compound NOT metabolized

Q: What about the “Bacterial Biotransformation” value [13] of the same compound?
A: Compound NOT metabolized

Q: And the “Bacterial Biotransformation” value [8]?
A: Compound metabolized

Q: What about the “Bacterial Biotransformation” value [9] of the same compound?
A: Compound NOT metabolized

Q: Which results are given for `Nc1c2c(nc3ccccc13)CCCC2` [TACRINE]?
A: Bacterial Biotransformation [10]: Compound NOT metabolized; Bacterial Biotransformation [2]: Compound NOT metabolized; Bacterial Biotransformation [4]: Compound NOT metabolized; Bacterial Biotransformation [11]: Compound NOT metabolized; Bacterial Biotransformation [15]: Compound NOT metabolized; Bacterial Biotransformation [6]: Compound NOT metabolized; Bacterial Biotransformation [12]: Compound NOT metabolized; Bacterial Biotransformation [13]: Compound NOT metabolized; Bacterial Biotransformation [9]: Compound NOT metabolized

Q: Which “Bacterial Biotransformation” value [2] does the source give for `CN1C(C(=O)Nc2ccccn2)=C(O)c2sccc2S1(=O)=O` [TENOXICAM] here?
A: Compound NOT metabolized

Q: And the “Bacterial Biotransformation” value [3]?
A: Compound NOT metabolized

Q: What about the “Bacterial Biotransformation” value [11] of the same compound?
A: Compound NOT metabolized

Q: What about the “Bacterial Biotransformation” value [15] of the same compound?
A: Compound NOT metabolized

Q: And the “Bacterial Biotransformation” value [5]?
A: Compound NOT metabolized

Q: What about the “Bacterial Biotransformation” value [6] of the same compound?
A: Compound NOT metabolized

Q: And the “Bacterial Biotransformation” value [12]?
A: Compound NOT metabolized

Q: And the “Bacterial Biotransformation” value [7]?
A: Compound NOT metabolized

Q: And the “Bacterial Biotransformation” value [13]?
A: Compound NOT metabolized

Q: And the “Bacterial Biotransformation” value [8]?
A: Compound NOT metabolized

Q: What about the “Bacterial Biotransformation” value [9] of the same compound?
A: Compound NOT metabolized

Q: Which “Bacterial Biotransformation” value [10] does the source give for `CC(C)(C)NC[C@H](O)COc1nsnc1N1CCOCC1.O=C(O)/C=C\C(=O)O` [TIMOLOL MALEATE] here?
A: Compound NOT metabolized

Q: What about the “Bacterial Biotransformation” value [11] of the same compound?
A: Compound NOT metabolized

Q: And the “Bacterial Biotransformation” value [6]?
A: Compound NOT metabolized

Q: And the “Bacterial Biotransformation” value [12]?
A: Compound NOT metabolized

Q: What about the “Bacterial Biotransformation” value [7] of the same compound?
A: Compound NOT metabolized

Q: What about the “Bacterial Biotransformation” value [13] of the same compound?
A: Compound NOT metabolized

Q: Which “Bacterial Biotransformation” value [1] does the source give for `OC(CCN1CCCCC1)(c1ccccc1)C1CCCCC1` (centres undefined) [TRIHEXYPHENIDYL] here?
A: Compound NOT metabolized

Q: And the “Bacterial Biotransformation” value [3]?
A: Compound NOT metabolized

Q: What about the “Bacterial Biotransformation” value [11] of the same compound?
A: Compound NOT metabolized

Q: And the “Bacterial Biotransformation” value [6]?
A: Compound NOT metabolized

Q: And the “Bacterial Biotransformation” value [13]?
A: Compound NOT metabolized

Q: What about the “Bacterial Biotransformation” value [9] of the same compound?
A: Compound NOT metabolized

Q: Which “Bacterial Biotransformation” value [1] does the source give for `N#Cc1ccc2[nH]cc(CCCCN3CCN(c4ccc5oc(C(N)=O)cc5c4)CC3)c2c1` [VILAZODONE] here?
A: Compound NOT metabolized

Q: And the “Bacterial Biotransformation” value [2]?
A: Compound metabolized

Q: What about the “Bacterial Biotransformation” value [3] of the same compound?
A: Compound NOT metabolized

Q: What about the “Bacterial Biotransformation” value [4] of the same compound?
A: Compound NOT metabolized

Q: What about the “Bacterial Biotransformation” value [6] of the same compound?
A: Compound NOT metabolized

Q: And the “Bacterial Biotransformation” value [12]?
A: Compound NOT metabolized

Q: And the “Bacterial Biotransformation” value [7]?
A: Compound metabolized

Q: And the “Bacterial Biotransformation” value [13]?
A: Compound metabolized

Q: And the “Bacterial Biotransformation” value [8]?
A: Compound metabolized

Q: What about the “Bacterial Biotransformation” value [9] of the same compound?
A: Compound NOT metabolized
